Results published in ChEMBL document CHEMBL2150906, “Synthesis of a new [6]-gingerol analogue and its protective effect with respect to the development of metabolic syndrome in mice fed a high-fat diet” (J Med Chem, 2011).
Active and inactive are the calls of the source. No cut-off for these calls is given here.

Experiments:
Mus musculus [1] = experiment: Reduction in serum leptin levels in HFD-induced obese Jcl:MCH mouse model administered as supplement for 86 days measured after 100 days by ELISA relative to HFD-fed control; assay type: functional, organism-based
Mus musculus [2] = experiment: Hypoglycemic activity in HFD-induced obese Jcl:MCH mouse model assessed as decrease in post prandial blood glucose levels administered as supplement for 86 days measured after 92 to 94 days by OGTT relative to HFD-fed control; assay type: functional, organism-based
Mus musculus [3] = experiment: Reduction in FAS mRNA levels in HFD-induced obese Jcl:MCH mouse model liver administered as supplement for 86 days measured after 100 days by RT-PCR relative to HFD-fed control; assay type: functional, organism-based
[4] = Stability of the compound in 6 N HCl assessed as formation of shogaols; assay type: physicochemical; details: buffer
Mus musculus [5] = experiment: Antiobesity activity in regular chow-fed Jcl:MCH mouse assessed as decrease in body weight administered as supplement for 86 days (reference value: 45.0 +/- 0.8 g); assay type: functional
Mus musculus [6] = experiment: Reduction in ACC mRNA levels in HFD-induced obese Jcl:MCH mouse model liver administered as supplement for 86 days measured after 100 days by RT-PCR relative to HFD-fed control; assay type: functional, organism-based
Mus musculus [7] = experiment: Antiobesity activity in HFD-induced obese Jcl:MCH mouse model assessed as decrease in visceral fat administered as supplement for 86 days measured after 90 days by MRI relative to control; assay type: functional
Mus musculus [8] = experiment: Reduction in leptin mRNA levels in HFD-induced obese Jcl:MCH mouse model adipose tissue administered as supplement for 86 days measured after 100 days by RT-PCR relative to HFD-fed control; assay type: functional, organism-based
Mus musculus [9] = experiment: Antiobesity activity in HFD-induced obese Jcl:MCH mouse model assessed as decrease in body weight administered as supplement for 86 days (reference value: 51.2 +/- 2.7 g); assay type: functional
3T3-L1 [10] = experiment: Increase in adiponectin mRNA levels in TNFalpha-induced mouse 3T3L1 cells pretreated at 50 uM before TNF-alpha challenge relative to control; assay type: functional, cell-based
3T3-L1 [11] = experiment: Increase in adiponectin mRNA levels in TNFalpha-induced mouse 3T3L1 cells pretreated at 25 to 50 uM before TNF-alpha challenge relative to control; assay type: functional, cell-based
[12] = Stability of the compound in simulated gastric fluid at pH 1.0 assessed as formation of shogaols; assay type: physicochemical; details: simulated gi fluid
Mus musculus [13] = experiment: Reduction in serum insulin levels in HFD-induced obese Jcl:MCH mouse model administered as supplement for 86 days measured after 100 days by ELISA relative to HFD-fed control; assay type: functional, organism-based
Mus musculus [14] = experiment: Antiobesity activity in regular chow-fed Jcl:MCH mouse assessed as decrease in subcutaneous fat administered as supplement for 86 days measured after 90 days by MRI (reference value: 5.4 +/- 1.7%); assay type: functional; set-up: scale not given: the % may be the effect or the level left
Mus musculus [15] = experiment: Reduction in TNFalpha mRNA levels in HFD-induced obese Jcl:MCH mouse model adipose tissue administered as supplement for 86 days measured after 100 days by RT-PCR relative to HFD-fed control; assay type: functional, organism-based
Mus musculus [16] = experiment: Hypoglycemic activity in HFD-induced obese Jcl:MCH mouse model assessed as decrease in fasting blood glucose levels administered as supplement for 86 days measured after 92 to 94 days by OGTT relative to HFD-fed control; assay type: functional, organism-based
Mus musculus [17] = experiment: Antiobesity activity in HFD-induced obese Jcl:MCH mouse model assessed as decrease in subcutaneous fat administered as supplement for 86 days measured after 90 days by MRI (reference value: 20.8 +/- 1.7 %); assay type: functional; set-up: scale not given: the % may be the effect or the level left
Mus musculus [18] = experiment: Reduction in SREBP1c mRNA levels in HFD-induced obese Jcl:MCH mouse model administered as supplement for 86 days measured after 100 days by RT-PCR relative to HFD-fed control; assay type: functional, organism-based
3T3-L1 [19] = experiment: Increase in adiponectin mRNA levels in TNFalpha-induced mouse 3T3L1 cells pretreated at 10 uM before TNF-alpha challenge relative to control; assay type: functional, cell-based

| Stability [4] | Stability [12] | Compound | Activity (Mus musculus [1]) | Activity (Mus musculus [2]) | Activity (Mus musculus [3]) | Activity (Mus musculus [5]) [g] | Activity (Mus musculus [6]) | Activity (Mus musculus [7]) [g] | Activity (Mus musculus [8]) | Activity (Mus musculus [9]) [g] | Activity (3T3-L1 [10]) | Activity (3T3-L1 [11]) | Activity (Mus musculus [13]) | Activity (Mus musculus [14]) [%] | Activity (Mus musculus [15]) | Activity (Mus musculus [16]) | Activity (Mus musculus [17]) [%] | Activity (Mus musculus [18]) | Activity (3T3-L1 [19]) |
| --- | --- | --- | --- | --- | --- | --- | --- | --- | --- | --- | --- | --- | --- | --- | --- | --- | --- | --- | --- |
| Stable | Stable | CCCCCC(O)CC(=O)NCc1ccc(O)c(OC)c1 (configuration not stated) | Active | Active | Active | 41.6 | Active | 1.84 | Active | 41.6 | Active | Active | Active | 6.7 | Active | Active | 10.9 | Active | – |
| – | – | CCCCCC(O)CC(=O)CCc1ccc(O)c(OC)c1 (configuration not stated) | Active | Active | Active | – | Active | 3.5 | Active | 47.1 | – | Active | Active | – | Active | Active | 6.7 | Active | – |
| – | – | CN(CCOc1ccc(CC2SC(=O)NC2=O)cc1)c1ccccn1 (configuration not stated) | – | – | – | – | – | – | – | – | – | – | – | – | – | – | – | – | Active |
